Consider 33 molecules from patent US20060148858A1, “1, 2-Azole derivatives with hypoglycemic and hypolipidemic activity” (priority 2002, published 2006).

What is called melting point is the temperature of the solid-liquid transition. `O=C(O)CCc1ccc(OCCCCc2cc(-c3ccc(C(F)(F)F)cc3)no2)cc1` [Example 14, 3-[4-(4-{3-[4-(trifluoromethyl)phenyl]-5-isoxazolyl}butoxy)phenyl]propionic acid]: the melting point was in the range of 130 to 131 °C.

On to `CCCc1nn(-c2ccc(C(F)(F)F)cn2)cc1CCCOc1nn(C)cc1CCC(=O)O` [Example 314, 3-[1-methyl-3-(3-{3-propyl-1-[5-(trifluoromethyl)-2-pyridinyl]-1H-pyrazol-4-yl}propoxy)-1H-pyrazol-4-yl]propanoic acid], for which the melting point lay within 103 to 104 °C.

`CCOc1cc(OCCCc2cn(-c3cc(C(F)(F)F)ccn3)nc2OCC)ccc1CCC(=O)OC` [Example 285, methyl 3-[2-ethoxy-4-(3-{3-ethoxy-1-[4-(trifluoromethyl)-2-pyridinyl]-1H-pyrazol-4-yl}propoxy)phenyl]propanoate] returned a melting point of 79 to 81 °C.

`CCOc1nn(-c2ccc(C(F)(F)F)cn2)cc1CCCOc1ccc(CCC(=O)O)cc1O` [Example 161, 3-[4-(3-{3-ethoxy-1-[5-(trifluoromethyl)-2-pyridyl]-1H-pyrazol-4-yl}propoxy)-3-hydroxyphenyl]propanoic acid] yielded a melting point of 124 to 125 °C.

`CCC(C)c1nn(-c2ccc(C(F)(F)F)cn2)cc1CCCOc1c(C)cccc1CC(=O)O` (stereo not drawn) [Example 219, [3-methyl-2-(3-{3-(1-methylpropyl)-1-[5-(trifluoromethyl)-2-pyridyl]-1H-pyrazol-4-yl}propoxy)phenyl]acetic acid] gave a melting point of 134 to 135 °C.

Take `CCOc1nn(-c2ccc(C(F)(F)F)cn2)cc1CCCOc1nn(C)cc1CC(=O)O` [Example 135, [3-(3-{3-ethoxy-1-[5-(trifluoromethyl)-2-pyridyl]-1H-pyrazol-4-yl}propoxy)-1-methyl-1H-pyrazol-4-yl]acetic acid]: the melting point fell in the range of 115 to 116 °C.

`CCOc1nn(-c2ccc(C(F)(F)F)cn2)cc1CCCOc1cc(OC)ccc1CC(=O)O` [Example 142, [2-(3-{3-ethoxy-1-[5-(trifluoromethyl)-2-pyridyl]-1H-pyrazol-4-yl}propoxy)-4-methoxyphenyl]acetic acid]: the melting point is 147 to 148 °C.

The molecule `CCc1cnn(CC(=O)O)c1OCCCc1cn(-c2ccc(C(F)(F)F)cn2)nc1C(CC)CC` [Example 330, [4-ethyl-5-(3-{3-(1-ethylpropyl)-1-[5-(trifluoromethyl)-2-pyridinyl]-1H-pyrazol-4-yl}propoxy)-1H-pyrazol-1-yl]acetic acid] yielded a melting point of 124 to 125 °C.

`O=C(O)CCc1cc(OCCCc2cn(-c3ccc(C(F)(F)F)cn3)nc2C2CCCCC2)nn1C1CCCCC1` [Example 261, 3-[1-cyclohexyl-3-(3-{3-cyclohexyl-1-[5-(trifluoromethyl)-2-pyridyl]-1H-pyrazol-4-yl}propoxy)-1H-pyrazol-5-yl]propanoic acid] returned a melting point of 190 to 191 °C.

Take `COc1cccc(CC(=O)O)c1OCCCc1cn(-c2ccc(C(F)(F)F)cn2)nc1C(C)(C)C` [Example 345, [2-(3-{3-tert-butyl-1-[5-(trifluoromethyl)-2-pyridinyl]-1H-pyrazol-4-yl}propoxy)-3-methoxyphenyl]acetic acid]: the melting point is 94 to 95 °C.

On to `CCOc1cc(OCCCCc2cc(-c3ccc(C(F)(F)F)cc3)no2)ccc1CCC(=O)O` [Example 21, 3-[2-ethoxy-4-(4-{3-[4-(trifluoromethyl)phenyl]-5-isoxazolyl}butoxy)phenyl]propionic acid], for which the melting point fell in the range of 105 to 106 °C.

Consider `CCOc1nn(-c2ccc(C(F)(F)F)cn2)cc1CCCOc1cc(CC(=O)O)n(C)n1` [Example 119, [3-(3-{3-ethoxy-1-[5-(trifluoromethyl)-2-pyridinyl]-1H-pyrazol-4-yl}propoxy)-1-methyl-1H-pyrazol-5-yl]acetic acid], for which the melting point lay in the range of 151 to 152 °C.

Consider `CCCCc1nn(-c2ccc(C(F)(F)F)cn2)cc1CCCOc1cc(CC(=O)O)ccc1OCC` [Example 202, [3-(3-{3-butyl-1-[5-(trifluoromethyl)-2-pyridyl]-1H-pyrazol-4-yl}propoxy)-4-ethoxyphenyl]acetic acid], for which the melting point lay in the range of 105 to 106 °C.

Turning to `COc1cccc(CC(=O)O)c1OCCCc1cn(-c2ccc(NC(=O)C(C)C)cn2)nc1C(C)C` [Example 268, [3-methoxy-2-(3-{3-isopropyl-1-[5-(2-methylpropanoylamino)-2-pyridyl]-1H-pyrazol-4-yl}propoxy)phenyl]acetic acid], the melting point lay in the range of 122 to 123 °C.

As for `CC(C)c1nn(-c2ccc(C(F)(F)F)cn2)cc1CCCCOc1ccc(CCC(=O)O)cc1` [Example 55, 3-[4-(4-{3-isopropyl-1-[5-(trifluoromethyl)-2-pyridinyl]-1H-pyrazol-4-yl}butoxy)phenyl]propanoic acid], the melting point was in the range of 144 to 145 °C.

Molecule `O=C(O)Cc1ccc(OCCCCc2cc(-c3ccc(C(F)(F)F)cc3)no2)cc1` [Example 13, [4-(4-{3-[4-(trifluoromethyl)phenyl]-5-isoxazolyl}butoxy)phenyl]acetic acid] displayed a melting point of 125 to 126 °C.

On to `Cn1nc(OCCCc2cc(-c3ccc(C(F)(F)F)cc3)no2)cc1C(=O)O` [Example 7, 1-methyl-3-(3-{3-[4-(trifluoromethyl)phenyl]-5-isoxazolyl}propoxy)-1H-pyrazole-5-carboxylic acid], for which the melting point lay within 162 to 163 °C.

For `CCCc1nn(-c2ccc(C(F)(F)F)cn2)cc1CCCOc1nn(C2CCCCC2)cc1CC(=O)O` [Example 320, [1-cyclohexyl-3-(3-{3-propyl-1-[5-(trifluoromethyl)-2-pyridinyl]-1H-pyrazol-4-yl}propoxy)-1H-pyrazol-4-yl]acetic acid], the melting point lay within 127 to 128 °C.

`Cc1nn(-c2ccc(C(F)(F)F)cn2)cc1CCCOc1ccccc1CC(=O)O` [Example 141, [2-(3-{3-methyl-1-[5-(trifluoromethyl)-2-pyridyl]-1H-pyrazol-4-yl}propoxy)phenyl]acetic acid]: the melting point was in the range of 128 to 129 °C.

Consider `Cc1nn(-c2ccccn2)cc1COc1ccc(CCC(=O)O)cc1` [Example 372, 3-{4-[3-methyl-1-(2-pyridinyl)-1H-pyrazol-4-ylmethoxy]phenyl}propionic acid], for which the melting point is 129 to 130 °C.

`CCCc1nn(-c2ccc(C(F)(F)F)cn2)cc1CCCCOc1ccc(CC(=O)O)cc1` [Example 88, [4-(4-{3-propyl-1-[5-(trifluoromethyl)-2-pyridyl]-1H-pyrazol-4-yl}butoxy)phenyl]acetic acid] registered a melting point of 121 to 122 °C.

In turn, `COc1cccc(OCCCc2cn(-c3ccc(C(F)(F)F)cn3)nc2C(C)C)c1CC(=O)O` [Example 208, [2-(3-{3-isopropyl-1-[5-(trifluoromethyl)-2-pyridyl]-1H-pyrazol-4-yl}propoxy)-6-methoxyphenyl]acetic acid] came in with a melting point of 183 to 184 °C.

Consider `O=C(O)c1ccc(OCCCCc2cc(-c3ccc(C(F)(F)F)cc3)no2)cc1` [Example 12, 4-(4-{3-[4-(trifluoromethyl)phenyl]-5-isoxazolyl}butoxy)benzoic acid], for which the melting point lay in the range of 170 to 171 °C.

`Cc1nn(-c2ccc(C(F)(F)F)cn2)cc1COc1ccc(CCC(=O)O)cc1` [Example 9, 3-(4-{3-methyl-1-[5-(trifluoromethyl)-2-pyridyl]-1H-pyrazol-4-ylmethoxy}phenyl)propionic acid]: the melting point lay in the range of 195 to 196 °C.

For the molecule `CC(C)(Oc1cccc(OCCCc2cn(-c3ccc(C(F)(F)F)cn3)nc2-c2ccccc2)c1)C(=O)O` [Example 133, 2-methyl-2-[3-(3-{3-phenyl-1-[5-(trifluoromethyl)-2-pyridyl]-1H-pyrazol-4-yl}propoxy)phenoxy]propionic acid], the melting point was in the range of 141 to 142 °C.

With `O=C(O)Cc1ccccc1OCc1cn(-c2ccc(C(F)(F)F)cn2)nc1C1CCCCC1` [Example 188, [2-({3-cyclohexyl-1-[5-(trifluoromethyl)-2-pyridyl]-1H-pyrazol-4-yl}methoxy)phenyl]acetic acid], the melting point fell in the range of 131 to 132 °C.

`CCOc1nn(-c2ccccn2)cc1CCCOc1cccc(CC(=O)O)c1` [Example 106, (3-{3-[3-ethoxy-1-(2-pyridinyl)-1H-pyrazol-4-yl]propoxy}phenyl)acetic acid] showed a melting point of 66 to 67 °C.

The molecule `CC(C)c1nn(-c2ccc(C(F)(F)F)cn2)cc1CCCCOc1ccccc1CC(=O)O` [Example 52, [2-(4-{3-isopropyl-1-[5-(trifluoromethyl)-2-pyridinyl]-1H-pyrazol-4-yl}butoxy)phenyl]acetic acid] had a melting point of 125 to 126 °C.

The molecule `COc1cccc(CC(=O)O)c1OCCCc1cn(-c2ccc(C(F)(F)F)nn2)nc1C(C)(C)C` [Example 366, [2-(3-{3-tert-butyl-1-[6-(trifluoromethyl)pyridazin-3-yl]-1H-pyrazol-4-yl}propoxy)-3-methoxyphenyl]acetic acid] gave a melting point of 131 to 132 °C.

In turn, `CCOc1nn(-c2cc(C(F)(F)F)ccn2)cc1CCCOc1cccc(OC(C)(C)C(=O)O)c1` [Example 289, 2-[3-(3-{3-ethoxy-1-[4-(trifluoromethyl)-2-pyridinyl]-1H-pyrazol-4-yl}propoxy)phenoxy]-2-methylpropanoic acid] returned a melting point of 98 to 99 °C.

Take `CC(C)c1nn(-c2ccc(C(F)(F)F)cn2)cc1CCCOc1cc(CCC(=O)O)n(C(C)C)n1` [Example 263, 3-[1-isopropyl-3-(3-{3-isopropyl-1-[5-(trifluoromethyl)-2-pyridyl]-1H-pyrazol-4-yl}propoxy)-1H-pyrazol-5-yl]propanoic acid]: the melting point was 130 to 131 °C.

Molecule `CC(C)c1nn(-c2ccc(C(F)(F)F)cc2)cc1COc1cccc(CC(=O)O)c1` [Example 178, [3-({3-isopropyl-1-[4-(trifluoromethyl)phenyl]-1H-pyrazol-4-yl}methoxy)phenyl]acetic acid] yielded a melting point of 92 to 93 °C.

Molecule `CCOc1nn(-c2ccc(C(F)(F)F)cn2)cc1CCOc1cc(CC(=O)O)n(C)n1` [Example 284, [3-(2-{3-ethoxy-1-[5-(trifluoromethyl)-2-pyridinyl]-1H-pyrazol-4-yl}ethoxy)-1-methyl-1H-pyrazol-5-yl]acetic acid] displayed a melting point of 156 to 158 °C.
